The values below are quoted from earlier work in patent publication US20150328277A1 (Teva Pharmaceutical Industries, Ltd., priority 2012, published 2015).

Where two headings read alike, the source gives them in different places.

For one data set, the system named is multiple sclerosis. The settings on record: 20 mg/day subcutaneous (s.c.); MS patients.
The test system of data set [1] is experimental autoimmune encephalomyelitis (EAE). To be noted: orally administered; rats.
Data set [2] deals with relapsing multiple sclerosis. To be noted: administered orally; clinical trial.
Data set [3] deals with experimental autoimmune encephalomyelitis (EAE). To be noted: orally administered; mice.

For “L-glutamic acid polymer with L-alanine, L-lysine, L-tyrosine, acetate (salt) [glatiramer acetate]”, the “total number of enhancing lesions as measured by MRI” value with multiple sclerosis was “reduce the total number of enhancing lesions”. For the same substance, the “induction of EAE” value in data set [1] and in data set [3] was “inhibited the induction of experimental autoimmune encephalomyelitis (EAE)” each time. Besides, the “relapse rate or other clinical MRI parameters of disease activity” value in data set [2] is “did not affect relapse rate or other clinical MRI parameters of disease activity”.
